Like-named read-outs stand apart in the source and are kept apart here.
Columns and labels:
[1] = molecular target: GLP-1R (Homo sapiens, UniProt P43220); experiment: HitHunter cAMP assay (GLP-1R); format: cell-based; conditions: cAMP; for Emax: read-out: (Emax) GLP-1R
Description: (§1) Suspension cells were harvested and resuspended in 1×HBSS (+10 mM HEPES, 625 μM IBMX, 0.2% BSA) according to the following procedure: 5 μL of 2× cell suspension+1× antibody were added to each well, where the optimal cell density was 10,000 cells per well in a low volume 384-well plate. Agonist serial dilutions in a separate 384 well dilution plate in a 22-point series of 2× dilutions of agonist in DMSO were performed as follows. 80 μL of the highest concentration of Agonist/DMSO was added to well No. 1. 40 μL was removed from well No. 1 and added it to well No. 2, followed by gentle mixing. […] This process was repeated until well No. 22. Additional serial dilutions for additional agonists were set up in a similar manner. 50 nL of each 2× agonist serial dilution was added in duplicate to the designated agonist rows of the assay plate using the Labcyte ECHO. Assay plate was incubated for 30 minutes at room temperature. Following agonist incubation, 5 μL of cAMP Antibody Reagent was added to all wells. […] Plates were spun down briefly. Assay plate was incubated for 1 hour at room temperature in the dark for the immunocompetition reaction to occur. […] Plates were spun down briefly. Assay plate was incubated O/N at room temperature in the dark. Samples were read on Tecan i-control plate reader using luminescence mode with 300 ms integration time. Data analysis was performed using GraphPad Prism.

[2] = molecular target: T1, GIP-R (Homo sapiens, UniProt P48546); experiment: HitHunter cAMP assay (GIP-R); format: cell-based; conditions: cAMP; for Emax: read-out: (Emax) GIP-R; for Emax at 1 µM: read-out: (Emax) GIP-R at 1 μM, Table 3
T1 sequence (P48546 22-466): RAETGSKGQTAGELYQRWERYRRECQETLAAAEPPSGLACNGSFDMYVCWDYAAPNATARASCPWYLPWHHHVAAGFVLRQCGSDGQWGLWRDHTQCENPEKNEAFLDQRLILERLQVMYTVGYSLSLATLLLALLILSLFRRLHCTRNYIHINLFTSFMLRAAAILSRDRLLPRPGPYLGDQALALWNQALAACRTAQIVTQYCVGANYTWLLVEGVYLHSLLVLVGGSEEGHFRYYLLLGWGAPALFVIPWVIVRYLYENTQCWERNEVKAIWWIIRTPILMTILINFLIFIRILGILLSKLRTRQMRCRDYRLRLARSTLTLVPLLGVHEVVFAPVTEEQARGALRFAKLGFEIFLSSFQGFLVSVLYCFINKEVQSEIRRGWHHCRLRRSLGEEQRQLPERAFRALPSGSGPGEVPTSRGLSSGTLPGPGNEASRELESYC
Description: as §1

[3] = Table 3, read-out: EC50 GLP-1R/nM
[4] = Table 3A, read-out: EC50 GLP-1R/nM
[5] = Table 3, read-out: EC50 GIP-R/nM
[6] = Table 3A, read-out: EC50 GIP-R/nM

Chain of GLP-1R (P43220 24-463): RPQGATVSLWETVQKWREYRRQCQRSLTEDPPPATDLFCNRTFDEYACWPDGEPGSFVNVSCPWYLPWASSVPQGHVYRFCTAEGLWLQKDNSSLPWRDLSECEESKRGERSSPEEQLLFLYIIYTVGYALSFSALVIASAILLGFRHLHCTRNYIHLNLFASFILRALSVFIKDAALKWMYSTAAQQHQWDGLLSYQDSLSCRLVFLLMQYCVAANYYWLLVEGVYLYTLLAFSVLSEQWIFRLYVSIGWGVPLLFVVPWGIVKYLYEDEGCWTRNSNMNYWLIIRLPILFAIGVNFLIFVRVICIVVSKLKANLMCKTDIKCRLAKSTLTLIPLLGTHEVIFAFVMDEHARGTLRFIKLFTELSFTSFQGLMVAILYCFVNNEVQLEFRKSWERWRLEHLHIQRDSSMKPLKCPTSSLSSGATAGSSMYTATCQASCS

## CCCCCCCCCCCCCCCC(=O)N[C@@H](CCC(=O)NCCCC[C@H](NC(=O)[C@H](CO)NC(=O)[C@@H]1CCCN1C(=O)[C@@H]1CCCN1C(=O)[C@@H]1CCCN1C(=O)[C@H](C)NC(=O)CNC(=O)[C@H](CO)NC(=O)[C@H](CO)NC(=O)[C@@H]1CCCN1C(=O)CNC(=O)CNC(=O)[C@H](C)NC(=O)[C@H](CC(C)C)NC(=O)[C@H](CC(C)C)NC(=O)[C@H](Cc1c[nH]c2ccccc12)NC(=O)[C@H](CC(N)=O)NC(=O)[C@@H](NC(=O)[C@H](Cc1ccccc1)NC(=O)[C@H](CCC(=O)O)NC(=O)C(C)(C)NC(=O)[C@H](C)NC(=O)[C@H](C)NC(=O)[C@H](CCC(N)=O)NC(=O)[C@H](CCCCN)NC(=O)[C@H](CC(=O)O)NC(=O)[C@H](CC(C)C)NC(=O)[C@H](Cc1ccc(O)cc1)NC(=O)[C@@H](NC(=O)[C@H](CO)NC(=O)[C@H](Cc1ccc(O)cc1)NC(=O)[C@H](CC(=O)O)NC(=O)[C@H](CO)NC(=O)[C@@H](NC(=O)[C@H](Cc1ccccc1)NC(=O)[C@@H](NC(=O)CNC(=O)[C@H](CCC(=O)O)NC(=O)CSCC(=O)NCCN1C(=O)CC(N)C1=O)[C@@H](C)O)[C@@H](C)O)[C@@H](C)CC)C(C)C)C(N)=O)C(=O)O (mixture of isomers) [Compound 67]
[1]; Table 3
  Emax: 100%
[1]; [3]
  EC50: 0.1 to 1 nM
[1]; Table 3A
  Emax: 100%
[1]; [4]
  EC50: 0.1 to 1 nM
[2]; Table 3
  Emax: 65%
[2]; [5]
  EC50: 1 to 10 nM
[2]; Table 3A
  Emax: 65%
[2]; [6]
  EC50: 1 to 10 nM

## CCCCCCCCCCCCCCCC(=O)N[C@@H](CCC(=O)NCCCC[C@H](NC(=O)[C@H](CO)NC(=O)[C@@H]1CCCN1C(=O)[C@@H]1CCCN1C(=O)[C@@H]1CCCN1C(=O)[C@H](C)NC(=O)CNC(=O)[C@H](CO)NC(=O)[C@H](CO)NC(=O)[C@@H]1CCCN1C(=O)CNC(=O)CNC(=O)[C@H](C)NC(=O)[C@H](CC(C)C)NC(=O)[C@H](CC(C)C)NC(=O)[C@H](Cc1c[nH]c2ccccc12)NC(=O)[C@H](CC(N)=O)NC(=O)[C@@H](NC(=O)[C@H](Cc1ccccc1)NC(=O)[C@H](CCC(=O)O)NC(=O)C(C)(C)NC(=O)[C@H](C)NC(=O)[C@H](C)NC(=O)[C@H](CCC(N)=O)NC(=O)[C@H](CCCCN)NC(=O)[C@H](CC(=O)O)NC(=O)[C@H](CC(C)C)NC(=O)[C@H](Cc1ccc(O)cc1)NC(=O)[C@@H](NC(=O)[C@H](CO)NC(=O)[C@H](Cc1ccc(O)cc1)NC(=O)[C@H](CC(=O)O)NC(=O)[C@H](CO)NC(=O)[C@@H](NC(=O)[C@H](Cc1ccccc1)NC(=O)[C@@H](NC(=O)CNC(=O)[C@H](CCC(=O)O)NC(=O)CSCC(=O)NCCN1C(=O)SC(C)C1=O)[C@@H](C)O)[C@@H](C)O)[C@@H](C)CC)C(C)C)C(N)=O)C(=O)O (mixture of isomers) [Compound 90]
[1]; EC50 GLP-1R/nM, Table 3
  EC50: 1 to 10 nM
[1]; EC50 GLP-1R/nM, Table 3A
  EC50: 1 to 10 nM
[1]; Table 3
  Emax: 108%
[1]; Table 3A
  Emax: 108%
[2]; EC50 GIP-R/nM, Table 3
  EC50: 1 to 10 nM
[2]; EC50 GIP-R/nM, Table 3A
  EC50: 1 to 10 nM
[2]; Table 3
  Emax: 74%
[2]; Table 3A
  Emax: 74%

## CCCCCCCCCCCCCCCC(=O)N[C@@H](CCC(=O)NCCCC[C@H](NC(=O)[C@H](CO)NC(=O)[C@@H]1CCCN1C(=O)[C@@H]1CCCN1C(=O)[C@@H]1CCCN1C(=O)[C@H](C)NC(=O)CNC(=O)[C@H](CO)NC(=O)[C@H](CO)NC(=O)[C@@H]1CCCN1C(=O)CNC(=O)CNC(=O)[C@H](C)NC(=O)[C@H](CC(C)C)NC(=O)[C@H](CC(C)C)NC(=O)[C@H](Cc1c[nH]c2ccccc12)NC(=O)[C@H](CC(N)=O)NC(=O)[C@@H](NC(=O)[C@H](Cc1ccccc1)NC(=O)[C@H](CCC(=O)O)NC(=O)C(C)(C)NC(=O)[C@H](C)NC(=O)[C@H](C)NC(=O)[C@H](CCC(N)=O)NC(=O)[C@H](CCCCN)NC(=O)[C@H](CC(=O)O)NC(=O)[C@H](CC(C)C)NC(=O)[C@H](Cc1ccc(O)cc1)NC(=O)[C@@H](NC(=O)[C@H](CO)NC(=O)[C@H](Cc1ccc(O)cc1)NC(=O)[C@H](CC(=O)O)NC(=O)[C@H](CO)NC(=O)[C@@H](NC(=O)[C@H](Cc1ccccc1)NC(=O)[C@@H](NC(=O)CNC(=O)[C@H](CCC(=O)O)NC(=O)CSCC(=O)NCCN1C(=O)CCC(c2ccccc2)C1=O)[C@@H](C)O)[C@@H](C)O)[C@@H](C)CC)C(C)C)C(N)=O)C(=O)O (mixture of isomers) [Compound 95]
[1]; EC50 GLP-1R/nM, Table 3
  EC50: 10 to 100 nM
[1]; EC50 GLP-1R/nM, Table 3A
  EC50: 10 to 100 nM
[1]; Table 3
  Emax: 84%
[1]; Table 3A
  Emax: 84%
[2]; EC50 GIP-R/nM, Table 3
  EC50: 1 to 10 nM
[2]; EC50 GIP-R/nM, Table 3A
  EC50: 10 to 100 nM
[2]; Table 3
  Emax: 20%
[2]; Table 3A
  Emax: 20%

## CCCCCCCCCCCCCCCC(=O)N[C@@H](CCC(=O)NCCCC[C@H](NC(=O)[C@H](CO)NC(=O)[C@@H]1CCCN1C(=O)[C@@H]1CCCN1C(=O)[C@@H]1CCCN1C(=O)[C@H](C)NC(=O)CNC(=O)[C@H](CO)NC(=O)[C@H](CO)NC(=O)[C@@H]1CCCN1C(=O)CNC(=O)CNC(=O)[C@H](C)NC(=O)[C@H](CC(C)C)NC(=O)[C@H](CC(C)C)NC(=O)[C@H](Cc1c[nH]c2ccccc12)NC(=O)[C@H](CC(N)=O)NC(=O)[C@@H](NC(=O)[C@H](Cc1ccccc1)NC(=O)[C@H](CCC(=O)O)NC(=O)C(C)(C)NC(=O)[C@H](C)NC(=O)[C@H](C)NC(=O)[C@H](CCC(N)=O)NC(=O)[C@H](CCCCN)NC(=O)[C@H](CC(=O)O)NC(=O)[C@H](CC(C)C)NC(=O)[C@H](Cc1ccc(O)cc1)NC(=O)[C@@H](NC(=O)[C@H](CO)NC(=O)[C@H](Cc1ccc(O)cc1)NC(=O)[C@H](CC(=O)O)NC(=O)[C@H](CO)NC(=O)[C@@H](NC(=O)[C@H](Cc1ccccc1)NC(=O)[C@@H](NC(=O)CNC(=O)[C@H](CCC(=O)O)NC(=O)CSCC(=O)NCCN1C(=O)CC(c2ccccc2)C1=O)[C@@H](C)O)[C@@H](C)O)[C@@H](C)CC)C(C)C)C(N)=O)C(=O)O (mixture of isomers) [Compound 99]
[1]; EC50 GLP-1R/nM, Table 3
  EC50: 1 to 10 nM
[1]; EC50 GLP-1R/nM, Table 3A
  EC50: 1 to 10 nM
[1]; Table 3
  Emax: 102%
[1]; Table 3A
  Emax: 102%
[2]; EC50 GIP-R/nM, Table 3
  EC50: > 1000 nM
[2]
  Emax at 1 µM: 11%
[2]; read-out: EC50 GIP-R/nM, Table 3A
  EC50: > 1000 nM

## CC[C@H](C)[C@H](NC(=O)[C@H](CO)NC(=O)[C@H](Cc1ccc(O)cc1)NC(=O)[C@H](CC(=O)O)NC(=O)[C@H](CO)NC(=O)[C@@H](NC(=O)[C@H](Cc1ccccc1)NC(=O)[C@@H](NC(=O)CNC(=O)[C@H](CCC(=O)O)NC(=O)CSCC(=O)NCCN1C(=O)CC(c2ccccc2)C1=O)[C@@H](C)O)[C@@H](C)O)C(=O)N[C@@H](Cc1ccc(O)cc1)C(=O)N[C@@H](CC(C)C)C(=O)N[C@@H](CC(=O)O)C(=O)N[C@@H](CCCCN)C(=O)N[C@@H](CCC(N)=O)C(=O)N[C@@H](C)C(=O)N[C@@H](C)C(=O)NC(C)(C)C(=O)N[C@@H](CCC(=O)O)C(=O)N[C@@H](Cc1ccccc1)C(=O)N[C@H](C(=O)N[C@@H](CC(N)=O)C(=O)N[C@@H](Cc1c[nH]c2ccccc12)C(=O)N[C@@H](CC(C)C)C(=O)N[C@@H](CC(C)C)C(=O)N[C@@H](C)C(=O)NCC(=O)NCC(=O)N1CCC[C@H]1C(=O)N[C@@H](CO)C(=O)N[C@@H](CO)C(=O)NCC(=O)N[C@@H](C)C(=O)N1CCC[C@H]1C(=O)N1CCC[C@H]1C(=O)N1CCC[C@H]1C(=O)N[C@@H](CO)C(=O)N[C@@H](CCCCN)C(N)=O)C(C)C (mixture of isomers) [Compound 105]
[1]; EC50 GLP-1R/nM, Table 3
  EC50: 10 to 100 nM
[1]; EC50 GLP-1R/nM, Table 3A
  EC50: 10 to 100 nM
[1]; Table 3
  Emax: 90%
[1]; Table 3A
  Emax: 90%
[2]; EC50 GIP-R/nM, Table 3
  EC50: 10 to 100 nM
[2]
  Emax at 1 µM: < 10%

## CC[C@H](C)[C@H](NC(=O)[C@H](CO)NC(=O)[C@H](Cc1ccc(O)cc1)NC(=O)[C@H](CC(=O)O)NC(=O)[C@H](CO)NC(=O)[C@@H](NC(=O)[C@H](Cc1ccccc1)NC(=O)[C@@H](NC(=O)CNC(=O)[C@H](CCC(=O)O)NC(=O)CC(C)CC(=O)NCCN1C(=O)CSC1=O)[C@@H](C)O)[C@@H](C)O)C(=O)N[C@@H](Cc1ccc(O)cc1)C(=O)N[C@@H](CC(C)C)C(=O)N[C@@H](CC(=O)O)C(=O)N[C@@H](CCCCN)C(=O)N[C@@H](CCC(N)=O)C(=O)N[C@@H](C)C(=O)N[C@@H](C)C(=O)NC(C)(C)C(=O)N[C@@H](CCC(=O)O)C(=O)N[C@@H](Cc1ccccc1)C(=O)N[C@H](C(=O)N[C@@H](CC(N)=O)C(=O)N[C@@H](Cc1c[nH]c2ccccc12)C(=O)N[C@@H](CC(C)C)C(=O)N[C@@H](CC(C)C)C(=O)N[C@@H](C)C(=O)NCC(=O)NCC(=O)N1CCC[C@H]1C(=O)N[C@@H](CO)C(=O)N[C@@H](CO)C(=O)NCC(=O)N[C@@H](C)C(=O)N1CCC[C@H]1C(=O)N1CCC[C@H]1C(=O)N1CCC[C@H]1C(=O)N[C@@H](CO)C(=O)N[C@@H](CCCCN)C(N)=O)C(C)C (mixture of isomers) [Compound 120]
[1]; Table 3
  Emax: 91%
[1]; [3]
  EC50: 1 to 10 nM
[1]; Table 3A
  Emax: 91%
[1]; [4]
  EC50: 1 to 10 nM
[2]; [5]
  EC50: > 1000 nM
[2]; [6]
  EC50: > 1000 nM
[2]
  Emax at 1 µM: 6%

From patent US20260176320A1, “MODULATORS OF G-PROTEIN COUPLED RECEPTORS” (priority 2018, published 2026)
